Results: patent US20260158140A1, “METHODS AND MATERIALS FOR IMPROVING T CELL THERAPIES” (Mayo Foundation for Medical Education and Research, priority 2021, published 2026)
“Also recorded” adds a separate entry of the source.

Columns and labels:
[1] = tested on: CD19+ Mantle cell lymphoma cell line, Jeko-1; experiment: CART19 cytotoxicity: co-culture of CART19 or UTD T cells with JeKo-1, percent killing; type: cell-based, human
Procedure: FIGS. 1A-1C. […] CART19 and live JeKo-1 were co-cultured at 1:1 ratio for 24 hours in the presence of DMSO or vecabrutinib (1 μM or 10 μM). The percentage of killing were assessed relative to control (****p<0.0001, two-way ANOVA). […] CART19 and irradiated JeKo-1 were co-cultured at 1:1 ratio for 24 hours in the presence of DMSO or vecabrutinib (1 μM or 10 μM). Absolute CD3^+ T cell counts were assessed by flow cytometry (**p<0.01, two-way ANOVA) . […] JeKo-1 target cells were incubated with CART19 at a 5:1 ratio with monensin, hCD49d, and hCD28 in the presence of vecabrutinib at the indicated concentrations for 4 hours. Cells were then analyzed using intracellular flow cytometric assessment of CD107a as a marker for degranulation.
FIG. 10. CART19 cytotoxicity in the presence of Vecabrutinib versus the irreversible BTK inhibitor, Ibrutinib. CART19 or control cells (UTD) were cocultured at different effector-to-target ratio (E:T) with Jeko-1 cell line with vecabrutinib at 1 μM or 10 μM, or ibrutinib at 1 μM. At 24 hours, live Jeko cells numbers was measured by flow cytometry and percent killing was calculated relative to control (*p<0.05, **p<0.01, two-way ANOVA).
To investigate CAR T-specific cytotoxicity, CART19 cells or control UTD T cells were co-cultured with the CD19^+ Mantle cell lymphoma cell line, Jeko-1, at 1:1 ratio and treated with vehicle (DMSO) or vecabrutinib at 1 μM or 10 μM for 24 hours (FIG. 1A).
Measurement of CART19 killing of JeKo-1 cells at different effector to target ratios. […] Results were normalized to target cells incubated with the respective concentration of the BTK inhibitor alone (with no CART19) to eliminate the direct cytotoxic effect of the inhibitor on lymphoma cells without CART19. 10 μM of ibrutinib was not included as it caused 100% killing of CART19 cells and Jeko-1 cells (FIGS. 11A and 11B).

CART19 cells [2] = experiment: CART19 proliferation: co-culture with irradiated JeKo-1, absolute CD3+ T cell counts by flow cytometry; type: cell-based, human; settings: 1 μM
Procedure: FIGS. 11A-11B. Proliferation. […] CART19 and irradiated JeKo-1 were co-cultured at 1:1 ratio for 24 hours in the presence of DMSO or vecabrutinib (1 μM or 10 μM) or ibrutinib (1 μM or 10 μM). Absolute CD3^+T cell counts were assessed by flow cytometry (*p<0.05, ****p<0.0001, two-way ANOVA). FIG. 11B) To further verify effect of BTK inhibition on CART19 proliferation, using different set of donors for CAR T cell production, CART19 and irradiated JeKo-1 were co-cultured at 1:1 ratio for 24 hours in the presence of DMSO or vecabrutinib (10 μM) or ibrutinib (10 μM).
For proliferation assays, CART19 cells were cultured with irradiated CD19^+ cell line Jeko-1 at a 1:1 ratio for 24 hours. Then, the cells were harvested and washed with flow buffer, following by surface staining with anti-hCD3 (eBioscience, San Diego, CA, USA) and LIVE/DEAD™ Fixable Aqua Dead Cell Stain Kit (Invitrogen, Carlsbad, CA, USA). […] Absolute quantification was obtained using volumetric measurement or CountBright absolute counting beads (Invitrogen, Carlsbad, CA, USA). […]
Next, the effect of vecabrutinib on CART19 proliferation was assessed. CART19 cells were cocultured with irradiated JeKo-1 cells for 24 hours in the presence of vecabrutinib (1 μM or 10 μM), and the absolute count of CART19 was measured by flow cytometry and used as a surrogate for proliferation. […]

CART19 cells [3] = experiment: RNA-Seq of CART19 cells stimulated with irradiated JeKo-1 (differential expression, Ingenuity Pathway Analysis); type: cell-based, human; settings: 10 μM vs vehicle
Procedure: CART19 and irradiated Jeko-1 cells were co-cultured at a 1:1 ration for 72 hours with DMSO or 10 μM Vecabrutinib. Three biological replicates of stimulated and unstimulated CART19 cells were included.
RNA was isolated using miRNeasy Micro kit (Qiagen, Gaithersburg, MD, USA) and treated with RNase-Free DNase Set (Qiagen, Gaithersburg, MD, USA). Total RNA was prepped with a SMARTer stranded total RNA-seq kit v2, Pico input mammalian (Takara, Mountain View, CA, USA). Total RNA (three samples per lane) was sequenced on an Illumina HiSeq 4000 (Illumina, San Diego, CA, USA). Library preparation and sequencing were performed by the Medical Genome Facility Genome, Analysis Core (Mayo Clinic, Rochester, MN, USA). Fastq files were viewed in FastQC v0.11.8 to check for quality. Adaptor sequences were removed using Cutadapt v1.18.46. Output files were re-checked for quality and adaptor removal using FastQC v0.11.8. The latest human (GRCh38) reference genomes were downloaded from NCBI. Genome index files were generated using STAR, and the paired end reads were mapped to the genome for each condition. HTSeq was used to generate expression counts for each gene, and DeSeq2 was used to calculate differential expression using adjusted p values <0.05. Heatmap was created using pheatmap (cran.r-project.org/web/packages/pheatmap/index.html). Networks were generated using Ingenuity Pathway Analysis v49932394 (QIAGEN, qiagenbioinformatics.com/products/ingenuity-pathway-analysis). Gene set enrichment analyses were performed using Enrichr (maayanlab.cloud/Enrichr/).
• Biological Replicates: C267, C278, C296 where CART19 cells were generated • Conditions: • Vehicle • 1 μM vecabrutinib • 10 μM vecabrutinib • Activated for 72 hours with Irradiated JeKo-1 (1:1 E:T Ratio) • mRNA was extracted from CART19 cells • RNA sequencing was performed
• FastQC (initial quality check) • Trimmomatic (trim adapters and overrepresented sequences) • FastQC (to confirm removal of the above) • STAR (align to the latest human genome annotation, GRCh38.p13) • HTSeq (obtain counts for each gene) • DESeq2 • Normalized counts across samples • Calculated differential expression between groups • Multiple hypothesis correction (Benjamini-Hochberg procedure)

luciferase+JeKo-1 cells = experiment: JeKo-1 xenograft model with CART19 plus oral vecabrutinib; type: in vivo; settings: CART19 + vecabrutinib 50 mg/kg BID vs CART19 + vehicle, weekly weighing (FIG. 4C)
Procedure: FIGS. 4A-4C. Reversible BTK inhibition in vivo enhances CAR T cell antitumor activity in xenograft models. […] On day-14, NSG mice were injected with 1×10^6 luciferase+JeKo-1 cells intravenously. Gavage began on day −1 with vecabrutinib 50 mg/kg BID or vehicle. Untransduced T cells (UTD) or CART19 were infused on day 0. Mice were imaged weekly to assess the tumor burden. p/s=photons/seconds. […] Mice were bled weekly to measure CART19 by flow cytometry (*p<0.05, one-way ANOVA). FIG. 4C) Vecabrutinib decreases CRS. Mouse weight and wellbeing along with elevation of human cytokines represent a surrogate for the development of CRS intensity in mice receiving CART19. […]
6-8 week old, non-obese diabetic/severe combined immunodeficient female mice bearing a targeted mutation in the interleukin (IL)-2 receptor gamma chain gene (NSG) were obtained from Jackson Laboratories (Jackson Laboratories, Bar Harbor, ME, USA). […] Mice were weighed weekly, and measurements were recorded in grams. Tumor burden was measured weakly by imaging mice with a bioluminescent imager using an IVIS® Lumina S5 Imaging System (PerkinElmer, Hopkinton, MA, USA), and measurements were recorded in total flux (p/s). […] Absolute quantification was obtained using volumetric measurement or CountBright absolute counting beads (Invitrogen, Carlsbad, CA, USA). […]

Row | SMILES | killing of CART19 cells and Jeko-1 cells ([1]; 10 μM) [%] | CART19-mediated killing of Jeko-1 lymphoma cells ([1]; different E:T ratios, 24 hours, vecabrutinib 1 μM or 10 μM, ibrutinib 1 μM, normalized to target cells with inhibitor alone (FIG. 10)) | CART19 proliferation (absolute CD3+ T cell count) (CART19 cells [2]; irradiated JeKo-1 1:1, 24 hours (FIG. 11A)) | CART19-mediated killing of tumor cells (tumor specific cytotoxicity), percentage of killing relative to control ([1]; CART19:JeKo-1 1:1, 24 hours, 1 μM or 10 μM vs DMSO (FIG. 1A)) | PI3K/AKT signaling z-score (Ingenuity Pathway Analysis) (CART19 cells [3]; 72 hours (FIG. 5F, FIG. 9)) | IL-8 signaling pathway z-score (Ingenuity Pathway Analysis) (CART19 cells [3]; 72 hours (FIG. 9)) | PDGF signaling z-score (Ingenuity Pathway Analysis) (CART19 cells [3]; 72 hours (FIG. 9)) | PTEN signaling pathway Z-score (Ingenuity Pathway Analysis) (CART19 cells [3]; 72 hours (FIG. 9)) | STAT 3 pathway z-score (Ingenuity Pathway Analysis) (CART19 cells [3]; 72 hours (FIG. 9)) | TH1 pathway Z-score (Ingenuity Pathway Analysis) (CART19 cells [3]; 72 hours (FIG. 9)) | body weight change from day 0 (surrogate for CRS) (luciferase+JeKo-1 cells) | CART19 antigen specific proliferation (absolute CD3+ T cell count) (CART19 cells [2]; irradiated JeKo-1 1:1, 24 hours (FIG. 1B))
1 | C=CC(=O)N1CCC[C@@H](n2nc(-c3ccc(Oc4ccccc4)cc3)c3c(N)ncnc32)C1 [ibrutinib] | 100 | no effect | no effect |  |  |  |  |  |  |  |  | 
2 | NC(=O)[C@H]1CCN(c2ncnc(N)c2F)C[C@@H]1N1CCC[C@@H](Nc2cc(Cl)cc(C(F)(F)F)c2)C1=O [vecabrutinib] |  |  |  | increases CART19-mediated killing of tumor cells; also recorded: dose-dependent increase | 0.707 | −1.941 | −1.667 | 0.333 | −3.051 | 0.816 | decreases CRS; also recorded: better maintained their body weight | no significant effect
